“Also recorded” adds a separate entry of the source.
Assays:
BEAS-2B cells = assay: Toxicity: compound concentration needed to induce greater than 50 percent of cell loss; format: cell-based, human; conditions: 18 hours incubation
Outline: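 BEAS-2B cells stably expressing TFEB-EGFP treated with serial compound dilutions for 18 h, then PFA-fixed, DAPI-stained and imaged. Toxicity scored as the concentration causing >50% cell loss, binned as ≥25 μM, <25 and >1 μM, or ≤1 μM ("+++").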

[1] = tested on: b-hexosaminidase (a lysosomal enzyme); assay: Secreted b-hexosaminidase activity normalized with cellular b-hexosaminidase activity in Beas2B cells; format: cell-based, human; conditions: indicated concentration, 18 hours
Experimental: (§1) FIGS. 5A-B. Compound 133 and Compound 115 increased lysosomal protein expression and secretion. A. Beas2B cells were treated with Cmpd. 133 at 10 μM for 24 hours. Cells then were collected and assayed for lysosomal protein gene expression. B. Beas2B cells were treated with Cmpd. 115 at the indicated concentration for 18 hours. Secreted b-hexosaminidase activity (a lysosomal enzyme) then was measured and normalized with cellular b-hexosaminidase activity.

Beas2B cells = assay: Lysosome quantity in Beas2B cells (light microscope, lysotracker Red confocal microscopy); format: cell-based, human; conditions: 18 hours, 1 μM or indicated concentrations
Experimental: FIGS. 4A-B. Compound 178 (BC1834) and Compound 160 (BC18200) increased lysosome quantity. A. Beas2B cells were treated with Cmpd. 178, Cmpd. 160, or the GSK3b inhibitor TWS119 (1 μM for 18 hours). Cells were then imaged through light microscope. B. Beas2B cells were treated with Cmpd. 178 for 18 hours at the indicated concentrations. Cells were then stained with lysotracker Red (100 nM) for 30 minutes. Cells then were washed and imaged through confocal microscopy.

[2] = tested on: lysosomal protein gene expression; assay: Lysosomal protein gene expression in Beas2B cells; format: cell-based, human; conditions: 10 μM for 24 hours
Experimental: as §1

GFP-72Q (Huntingtin) = assay: GFP-Huntingtin levels in SH5Y cells stably transfected with GFP-72Q (confocal imaging, immunoblot); format: cell-based; conditions: SH5Y cells stably expressing GFP-Huntingtin (72Q), indicated amounts, 24 hours
Experimental: FIGS. 6A-B. Compound 178 reduced Huntingtin gene expression. A-B. SH5Y cells stably transfected with GFP-72Q (Huntingtin) were treated with the indicated amounts of Cmpd. 178 for 24 hours. Cells then were imaged with a confocal microscope or collected and assayed for protein expression using a GFP-Huntingtin immunoblot.
Compound 178 (BC1834) was tested for the ability to reduce Huntingtin polypeptide levels within cells. Briefly, Compound 178 was administered to SH5Y cells stably expressing GFP-Huntingtin (72Q).

TFEB [3] = assay: High content screen measuring TFEB nuclear accumulation (TFEB nuclear/cytosol ratio) in BEAS-2B cells stably expressing TFEB-EGFP; format: cell-based, human; conditions: 18 hours incubation
Outline: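 BEAS-2B cells stably expressing TFEB-EGFP (~2300–2500 per well) pre-incubated 8 hours, then exposed to serially diluted compounds (DMEM low glucose, 2% FBS) for 18 hours, PFA-fixed and DAPI-stained. Imaged nuclear (DAPI mask) vs cytosolic (expanded mask) TFEB-GFP; activity = minimal concentration raising nuclear/cytosol ratio by 25%.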

TFEB [4] = assay: Confocal imaging of TFEB localization in MLE12 cells stably expressing TFEB-EGFP; format: cell-based, murine; conditions: dose dependent, 18 hours / 24 hours
Experimental: (§2) FIGS. 2A-C. BC1753 increases TFEB polypeptide levels. A. The structure of BC1753 is provided. B. MLE12 cells stably expressing TFEB-EGFP were treated with the indicated amounts of BC1753 for 24 hours before immunoblotting for TFEB-GFP and β-actin. C. MLE12 cells stably expressing TFEB-EGFP were treated with the indicated amounts of BC1753 for 24 hours before imaging by confocal microscopy (scale bar=10 μm).
(§3) BC1753 (FIG. 2A) was tested for its ability to increase TFEB polypeptide levels. Briefly, murine lung epithelial cells (MLE12) stably expressing TFEB-EGFP were treated with BC1753 in a dose dependent manner for 18 hours. Cells were then collected and assayed by immunoblotting for TFEB-GFP protein levels (FIG. 2B). Murine lung epithelial cells (MLE12) stably expressing TFEB-EGFP were treated with […] in a dose dependent manner for 18 hours. Cells were then fixed with 4% PFA followed by DAPI staining. TFEB localization was imaged on the GFP channel along with the DAPI signal using a Nikon A1 confocal microscope (FIG. 2C).

TFEB [5] = assay: Immunoblotting for TFEB-GFP protein levels in MLE12 cells stably expressing TFEB-EGFP; format: cell-based, murine; conditions: dose dependent, 18 hours / 24 hours
Experimental: as §2, §3

Row | SMILES | toxicity (compound concentration needed to induce greater than 50 percent of cell loss) (BEAS-2B cells) | secretion of the lysosomal enzyme beta hexosaminidase [1] | lysosome quantity (Beas2B cells) | lysosomal protein expression [2] | GFP-Huntingtin polypeptide levels (GFP-72Q (Huntingtin)) | efficacy (minimal compound concentration needed to increase TFEB nuclear/cytosol ratio by 25%) (TFEB [3]) | nuclear TFEB polypeptide accumulation (confocal microscopy) (TFEB [4]) | total TFEB polypeptide levels within cells (TFEB-GFP immunoblot) (TFEB [5])
1 | Fc1cccc(Nc2nc(-c3ccncc3)nc3ccccc23)c1 [Compound 178] | + (cell loss of greater than 50 percent at a concentration that equals or is greater than 25 μM was represented as) | increase | increase | increase | dose dependently reduced | +++ (“+++” equals ≤1 μM) |  | 
2 | COc1ccc(-n2c(=O)c3ccc(C(=O)NCCc4ccccc4)cc3n(CC(=O)Nc3ccc(C)cc3)c2=O)cc1 [BC1753] |  |  |  |  |  |  | increased | increases; also recorded: drastically increased

Source: US12286442B2, “Methods and materials for increasing transcription factor eb polypeptide levels” (University of Pittsburgh—Of the Commonwealth System of …, priority 2019, dated 2025)
